Results reported in patent US8501715B2, “Oxidized lipids and uses thereof in the treatment of inflammatory diseases and disorders” (Vascular Biogenics Ltd., priority 2003, dated 2013).
Entries after “also recorded” stand apart in the source; their conditions may differ. Like-named read-outs stand apart in the source and are kept apart here.

Tests used:
Apo-E KO mice = assay: Assessment of atherosclerosis: lesion area in the aortic sinus; format: in vivo, mouse
IL-10 [1] = assay: RT-PCR cytokine expression in the aorta: IL-10; format: in vivo, mouse
Procedure: (§1) The effect of ALLE, CI-201, its corresponding acetal derivatives Et-acetal and Me-acetal (Compounds IIa and IIb, FIG. 10) and oxLDL on cytokine expression in the target organ—the aorta—was evaluated using RT-PCR as described hereinabove. […] Oral administrations took place 5 times every other day.

IFN-γ [2] = assay: RT-PCR cytokine expression in the aorta: IFN-γ; format: in vivo; conditions: oral 1 mg/mouse 5 times every other day, 8 weeks after final administration
Procedure: as §1

IL-12 = assay: RT-PCR cytokine expression in the aorta: IL-12; format: in vivo; conditions: oral 1 mg/mouse 5 times every other day, 8 weeks after final administration
Procedure: as §1

Serum Amyloide A (SAA) = assay: Inflammatory markers in serum (ELISA): SAA; format: in vivo; conditions: oral 0.1 μg/mouse 5 times every other day; day 0, 2 and 4 weeks; control group dramatically increased
Procedure: (§2) Inflammatory Markers Evaluation in Serum: Serum was separated by centrifuge and stored at −70° C. Analysis of inflammatory markers was performed by ELISA (IL-10; R&D and SAA; BIOSOURCE).
(§3) Thus, Apo-E KO mice were orally administered with 0.1 μg/mouse CI-201 or 0.2 ml/mouse PBS, 5 times every other day. Mice serum was collected before treatment (day 0), at the end of the treatment (two weeks) and two weeks thereafter (4 weeks) and the level of the inflammation markers IL-10 and Serum Amyloide A (SAA) were evaluated.

Lewis rats = assay: Adjuvant-induced arthritis (AIA) in Lewis rats; format: in vivo, rat
IL12p40 [3] = assay: p40 production by activated BMDC's (ELISA); format: cell-based, mouse
IL-10 [4] = conditions: oral 0.1 μg/mouse 5 times every other day
Procedure: as §2, §3

IL-10 and IFN-γ = conditions: oral 1 mg/dose 5 times every other day
Procedure: The effects of CI-201 treatment on cytokine expression in the targeted organ—the aorta, as well as in the spleen, liver, kidneys and small intestine were evaluated using RT-PCR as described hereinabove. Apo-E KO mice were orally administered with 1 mg/dose CI-201 or with 0.2 ml/mouse PBS, 5 times every other day. The expression of the anti-inflammatory cytokine IL-10 and the pro-inflammatory cytokine IFN-γ were determined 8 weeks after final oral administration.

IFN-γ [5] = conditions: in vivo oral treatment (0.1 μg/feed C57BL/6, ovalbumin; 10 and 100 μg/mouse/feed SJL, PLP 139-151); ex vivo restimulation
Procedure: (FIG. 26a) C57BL/6 mice were fed in alternate days from day −10 to day +10 with CI-201 (0.1 μg/feed) of PBS. On day 0, mice were immunized with ovalbumin in CFA. On day 10, draining lymph nodes were excised and cells stimulated with ovalbumin. Cells were expanded for a week and then re-stimulated for 4 hours with plate bound anti-CD3 and anti-CD28 (5 μg/ml) in the presence of monensin (2 μM) and tested for cytokine expression by intracellular staining. Results are gated on CD4+ T cells. […] Lymph nodes were collected 10 days later, stimulated ex vivo with 10 μg/ml of PLP 139-151 peptide or 0.5 μg/ml of anti CD3 and three days later supernatants were collected and tested by ELISA for cytokine production.
Lymph nodes were collected 10 days later, stimulated ex vivo with 10 μg/ml of PLP 139-151 peptide or 0.5 μg/ml of anti CD3 and three days later cytokine production from the supernatant was measured using the Duoset ELISA kit (R&D systems, Minneapolis, Minn.).
Ex-vivo ELISA and Intracellular staining: For intracellular staining, C57BL/6 were orally administered with CI-201 (0.1 μg/mouse/feed) or PBS as control, 5 times, once every other day. Dosing volume was 0.2 ml. Subsequently, mice were immunized subcutaneously in two flanks with 200 μl of emulsion containing 200 μg of ovalbumin and MT (100 μg). […]

TNF-α [6] = conditions: BMDC's, activators other than PolyI:C
Procedure: Isolation of bone-marrow derived dendritic cells (BMDC's): Bone-marrow was flushed out with cold RPMI-1640 from mice femur and tibia. […] Cells were then washed, resuspended in the same buffer, and depleted from B and T cells on a Midi-Macs separation unit through a LD or LS column (Miltenyi biotech). The depleted cells were then counted, washed and seeded (10^6/ml) in medium containing RPMI-1640, L-glutamine, β-mercaptoethanol, 10% FCS, antibiotics (Penicillin, Streptomycin) and 20 ng/ml of mouse GM-CSF (Peprotech, Rehovot, Israel). Medium was replaced every other day and cells were used for subsequent experiments on days 5-6 post culturing.
(§4) Cytokine analysis: For the detection of cytokine production, supernatants from BMDC's and Mo-DC's following a 24 hour treatment were tested with Duoset ELISA kits for mouse IL12p40, TNF-α, IL-6 and human IL12p40 and TNF-α (R&D systems, Minneapolis, Minn.) respectively.

IL-6 = conditions: BMDC's, PGN activation
Procedure: BMDC's were incubated for 1 hour with different CI-201 concentrations prior to activation with 10 μg/ml of PGN. Supernatant were collected 24 hours following activation and the levels of IL-6 (FIG. 3M) and IL-1 (FIG. 3N) were measured.
as §4

IL-1 = conditions: BMDC's, PGN activation
Procedure: Supernatant were collected 24 hours following activation and the levels of IL-6 (FIG. 3M) and IL-1 (FIG. 3N) were measured.
Isolation of bone-marrow derived dendritic cells (BMDC's): Bone-marrow was flushed out with cold RPMI-1640 from mice femur and tibia. A cell suspension was prepared and erythrocytes were removed using red blood cell (RBC) lysis buffer (Beit Haemek, Israel). […] Cells were then washed, resuspended in the same buffer, and depleted from B and T cells on a Midi-Macs separation unit through a LD or LS column (Miltenyi biotech). The depleted cells were then counted, washed and seeded (10^6/ml) in medium containing RPMI-1640, L-glutamine, β-mercaptoethanol, 10% FCS, antibiotics (Penicillin, Streptomycin) and 20 ng/ml of mouse GM-CSF (Peprotech, Rehovot, Israel). Medium was replaced every other day and cells were used for subsequent experiments on days 5-6 post culturing.

IL-23p19 = conditions: CD11c+ BMDC's, CI-201 20 μg/ml, PGN 10 μg/ml
CD11c+BMDC's = conditions: 3 hours PGN 10 μg/ml with CI-201 20 μg/ml
Procedure: Gene Chip analysis: Mouse BMDC's were enriched for CD11c+DC (>90%) with mouse CD11c microbeads from 5-6 days cultures over MS or LS columns (Miltenyi biotech). […] RNA was prepared and used to generate cRNA. Preparation of cRNA, hybridization and scanning was done in the Weizmann Institute of Science (Rehovot, Israel) on the mouse genome 430A 2.0 array (Affymetrix, Santa Clara, Calif.).

IL12p40 [7] = conditions: human Mo-DC's, PGN 10 μg/ml, 24 hours
Procedure: (§5) Supernatants were collected 24 hours following activation and the levels of p40 (FIG. 30a) and TNF-α (FIG. 30b) were measured by ELISA.
(§6) Isolation of human monocyte derived dendritic cells (Mo-DC's): PBMCs were isolated from heparinized whole blood from healthy donors by Ficoll-Paque (Amersham, Uppsala, Sweden). Cells were incubated at 4° C. for 15 minutes in buffer containing PBS, 0.5% bovine serum albumin (BSA) and 2 mM EDTA with human CD14 microbeads (Miltenyi biotech) washed and positively selected on a Midi-Macs separation unit through LS column. The resulting cells were counted washed and seeded (10^6/ml) in medium containing RPMI-1640, L-glutamine, 3-mercaptoethanol, 10% FCS, antibiotics (Penicillin, Streptomycin), non essential amino acids, sodium pyruvate, 40 ng/ml of human GM-CSF and 20 ng/ml of human IL-4 (R&D systems, Minneapolis, Minn.). Medium was replaced every other day and cells were used for subsequent experiments on days 5-6 post culturing. Cell purity was >75% as determined by FACS for CD11c.
as §4

TNF-α [8] = conditions: human Mo-DC's, PGN 10 μg/ml, 24 hours
Procedure: as §5, §6, §4

p40 [9] = conditions: PBMC's from two donors, IFN-γ over-night, PGN 24 hours; all tested concentrations
Procedure: (§7) PBMC's from healthy donors were incubated over-night with IFN-γ and then activated with PGN in the presence of CI-201 for another 24 hours. Supernatants were then evaluated for p40 and TNF-α production.

TNF-α [10] = conditions: IFN-γ, PGN
Procedure: as §7

p40 [11] = conditions: splenic CD11b cells, IFN-γ over night, PGN 24 hours
Procedure: (§8) Isolation of Monocytes/Macrophages: Spleens were removed and a cell suspension was prepared. Erythrocytes were depleted using red blood cell (RBC) lysis buffer (Beit Haemek, Israel). Cells were washed in phosphate buffer saline (PBS) (Beit Haemek, Israel), and incubated in 4° C. for 15 min in buffer containing PBS and 0.5% bovine serum albumin (BSA) with mouse CD11b microbeads (Miltenyi biotech, Bergisch Gladbach, Germany). Cells were then washed, resuspended in the same buffer and positively selected on a Mini-Macs separation unit through a MS column (Miltenyi biotech).
(§9) In order to assess CI-201 effect on p40 production by macrophages, splenic CD11b cells were incubated over night with IFN-γ and then activated for 24 hours with PGN in the presence CI-201.

TNF-α [12] = conditions: splenic CD11b cells, IFN-γ over night, PGN 24 hours
Procedure: as §8, §9

IL-12p35 = assay: Q-PCR RNA expression in CD11c+ BMDC's: IL-12p35; conditions: CI-201 20 μg/ml, PGN 10 μg/ml
IL-27p28 = assay: Q-PCR RNA expression in CD11c+ BMDC's: IL-27p28; conditions: CI-201 20 μg/ml, PGN 10 μg/ml
IL-12/IL-23p40 = assay: Q-PCR RNA expression in CD11c+ BMDC's: IL-12/IL-23p40; conditions: CI-201 20 μg/ml, PGN 10 μg/ml, first 6 hours following activation, normalized to GAPDH

## CCCCCCCCCCCCCCCCOC[C@H](COP(=O)([O-])OCC[N+](C)(C)C)OCCCCC(=O)O [CI-201, 1-Hexadecyl-2-(5′-Carboxy-butyl)-sn-glycero-3-phosphocholine]
Apo-E KO mice; oral 0.1 μg/dose, 3 monthly sets of 5 administrations, 12 weeks after first feeding, 26-28 weeks old mice
  Aortic Sinus Lesion: 228,000±25,772 μm^2
Apo-E KO mice; oral 0.1 μg/dose, P<0.05
  decrease in atherosclerotic lesion in the aortic sinus as compared with the PBS treated group: 92%
Apo-E KO mice; oral 1 μg/dose, 3 monthly sets of 5 administrations, 12 weeks after first feeding, 26-28 weeks old mice
  Aortic Sinus Lesion: 295,729 ± 20,909 μm^2
Apo-E KO mice; oral 10 μg/dose, 3 monthly sets of 5 administrations, 12 weeks after first feeding, 26-28 weeks old mice
  Aortic Sinus Lesion: 272,483 ± 20,505 μm^2
Apo-E KO mice; oral 0.025 mg/dose, 8 weeks, P=0.051
  decrease of the aortic sinus lesion versus PBS control: 33%
Apo-E KO mice; oral 0.1, 1 or 10 μg/dose tested
  most effective dose for inhibiting disease progression: 0.1 μg/dose
Apo-E KO mice; oral 0.1, 1 or 10 μg/dose, 3 monthly sets
  disease progression (lesion area versus base line group): completely inhibited disease progression; also recorded: inhibited the disease progression
Apo-E KO mice; oral administration
  atherogenesis in Apo-E KO mice, oral administration (summary of earlier examples): substantially inhibited atherogenesis
Apo-E KO mice; oral gavage 0.025 mg/dose every day (5 times a week) for 8 weeks, male 12 weeks old mice
  Aortic Sinus Lesion: 125,192±19,824 μm^2
IL-10 [1]; oral 0.025 mg/dose, 8 weeks
  IL-10 expression in the aorta, higher than control group: 40%
IL-10 [1]; oral 1 mg/mouse 5 times every other day, 8 weeks after final administration
  IL-10 expression in the aorta versus PBS: elevated levels
IFN-γ [2]
  IFN-γ expression in the aorta versus PBS: reduced expression level
IL-12
  IL-12 expression in the aorta versus PBS: reduced levels
Serum Amyloide A (SAA)
  SAA serum levels: no alterations
Lewis rats; continuous treatment, high dose: 5 feedings before induction, then 3 times a week for about 30 days
  arthritis development (paw swelling, arthritis score, percentage of rats with symptoms): substantially attenuated arthritis development
Lewis rats; oral pre-treatment 4.0 mg/kg 5 times every other day before AIA induction
  paw swelling versus PBS-pretreated rats: significant decrease
Lewis rats; oral pre-treatment with the higher dose (4 mg/kg) before AIA induction
  mobility: close to that of normal rats
IL12p40 [3]; BMDC's, 1 hour pre-incubation, activation with PGN (TLR 2/6) 10 μg/ml, 24 hours
  p40 production: significant and dose dependent reduction
IL12p40 [3]; BMDC's, CpG (TLR9) engagement, only 20 μg/ml of CI-201
  p40 secretion: significantly inhibit
IL12p40 [3]; BMDC's, Fc-CD40L activation 1 μg/ml
  p40 secretion: significant reduction
IL12p40 [3]; BMDC's, PolyI:C (TLR3) activation 25 μg/ml
  p40 production: significant and dose dependent p40 inhibition
IL12p40 [3]; BMDC's, activation with LPS (TLR4) 100 ng/ml, intermediated concentrations of CI-201
  p40 levels: significant, but small reduction
IL12p40 [3]; BMDC's, activation with Pam3CSK4 (TLR1/2) 300 ng/ml, 24 hours
  p40 production: significant p40 inhibition
IL12p40 [3]; activated DC's in vitro
  concentration giving maximal inhibition of p40 production (highest concentration used): 20 µg/mL
IL-10 [4]; 2 weeks after end of treatment (4 weeks)
  IL-10 serum level: decay
IL-10 [4]; end of the treatment (2 weeks)
  IL-10 serum level: substantial increase
IL-10 and IFN-γ; 8 weeks after final administration
  cytokine expression in the spleen and in the small intestine versus PBS: no differences
IL-10 and IFN-γ; data not shown
  cytokine expression in the liver and in kidney: No change
IFN-γ [5]
  IFN-γ production by CD4+ T cells: reduced IFN-γ production
TNF-α [6]
  production of TNF-α: did not impair
IL-6
  production of IL-6: did not impair
IL-1
  production of IL-1: did not impair
IL-23p19
  RNA expression level of p19: substantial inhibition
CD11c+BMDC's
  p19 expression (gene chip): reduced p19 expression
  p40 RNA expression (gene chip): reduced RNA expression
IL12p40 [7]
  p40 production: can inhibit p40 production
TNF-α [8]
  ability to produce TNF-α: without altering
p40 [9]
  p40 production: close to complete inhibition
TNF-α [10]; PBMC's from donor I
  TNF-α production: did not impair
TNF-α [10]; PBMC's from donor II
  TNF-α levels: modest reduction
p40 [11]
  p40 production levels versus control cells: no major differences
TNF-α [12]
  TNF-α production levels versus control cells: no major differences
IL-12p35
  RNA expression level of p35: did not modify
IL-27p28
  RNA expression level of p28: did not modify
IL-12/IL-23p40
  p40 RNA expression, inhibition compared to control: more than two folds
